Laboratory results taken from PubChem BioAssay AID1259407 (Chemical Carcinogenesis Research Information System (CCRIS), 2018).
Active and inactive are the calls of the source. The rule behind the calls is not given here.

System: CCRIS mutagenicity, Ames/micronucleus/aberration tests
Assay: CCRIS mutagenicity studies
[1] = Test System: AMES SALMONELLA TYPHIMURIUM, Strain/Indicator: TA98, Metabolic Activation: NONE, Method: PREINCUBATION
[2] = Test System: AMES SALMONELLA TYPHIMURIUM, Strain/Indicator: TA98, Metabolic Activation: RAT, LIVER, S-9, AROCLOR 1254, Method: PREINCUBATION
[3] = Test System: AMES SALMONELLA TYPHIMURIUM, Strain/Indicator: TA100, Metabolic Activation: NONE, Method: PREINCUBATION
[4] = Test System: AMES SALMONELLA TYPHIMURIUM, Strain/Indicator: TA100, Metabolic Activation: RAT, LIVER, S-9, AROCLOR 1254, Method: PREINCUBATION

Measured: mutagenic call

Clc1cc2c(cc1Cl)Oc1cc(Cl)c(Cl)cc1O2
inactive: End Point: IN VITRO CHROMOSOMAL ABERRATIONS, Test System: CHINESE HAMSTER OVARY CELLS, Metabolic Activation: NONE inactive; negative | End Point: IN VITRO CHROMOSOMAL ABERRATIONS, Test System: CHINESE HAMSTER OVARY CELLS, Metabolic Activation: RAT, LIVER, S-9, AROCLOR 1254 inactive; negative | Test System: AMES SALMONELLA TYPHIMURIUM, Strain/Indicator: TA97, Metabolic Activation: NONE, Method: PREINCUBATION inactive; negative | Test System: AMES SALMONELLA TYPHIMURIUM, Strain/Indicator: TA97, Metabolic Activation: RAT, LIVER, S-9, AROCLOR 1254, Method: PREINCUBATION inactive; negative | [1] inactive; negative | [2] inactive; negative | [3] inactive; negative | [4] inactive; negative | Test System: Ames Salmonella typhimurium, Strain/Indicator: TA98, Metabolic Activation: Hamster, Liver, S-9, Aroclor 1254, Method: Preincubation inactive; negative | Test System: Ames Salmonella typhimurium, Strain/Indicator: TA98, Metabolic Activation: None, Method: Preincubation inactive; negative | Test System: Ames Salmonella typhimurium, Strain/Indicator: TA98, Metabolic Activation: Rat, Liver, S-9, Aroclor 1254, Method: Preincubation inactive; negative | Test System: Ames Salmonella typhimurium, Strain/Indicator: TA100, Metabolic Activation: Hamster, Liver, S-9, Aroclor 1254, Method: Preincubation inactive; negative | Test System: Ames Salmonella typhimurium, Strain/Indicator: TA100, Metabolic Activation: None, Method: Preincubation inactive; negative | Test System: Ames Salmonella typhimurium, Strain/Indicator: TA100, Metabolic Activation: Rat, Liver, S-9, Aroclor 1254, Method: Preincubation inactive; negative | Test System: Ames Salmonella typhimurium, Strain/Indicator: TA1535, Metabolic Activation: Hamster, Liver, S-9, Aroclor 1254, Method: Preincubation inactive; negative | Test System: Ames Salmonella typhimurium, Strain/Indicator: TA1535, Metabolic Activation: None, Method: Preincubation inactive; negative | Test System: Ames Salmonella typhimurium, Strain/Indicator: TA1535, Metabolic Activation: Rat, Liver, S-9, Aroclor 1254, Method: Preincubation inactive; negative | Test System: Ames Salmonella typhimurium, Strain/Indicator: TA1537, Metabolic Activation: Hamster, Liver, S-9, Aroclor 1254, Method: Preincubation inactive; negative | Test System: Ames Salmonella typhimurium, Strain/Indicator: TA1537, Metabolic Activation: None, Method: Preincubation inactive; negative | Test System: Ames Salmonella typhimurium, Strain/Indicator: TA1537, Metabolic Activation: Rat, Liver, S-9, Aroclor 1254, Method: Preincubation inactive; negative | Test System: MOUSE LYMPHOMA, Strain/Indicator: L5178Y (TK+/TK-), Metabolic Activation: NONE, Method: SUSPENSION/PLATE inactive; negative | Test System: MOUSE LYMPHOMA, Strain/Indicator: L5178Y (TK+/TK-), Metabolic Activation: RAT, LIVER, S-9, AROCLOR 1254, Method: SUSPENSION/PLATE inactive; negative

O=C(O)/C(Cl)=C(/C(=O)O)C(Cl)Cl
inactive: Test System: AMES SALMONELLA TYPHIMURIUM, Strain/Indicator: TA97, Metabolic Activation: NONE, Method: STANDARD PLATE inactive; negative | Test System: AMES SALMONELLA TYPHIMURIUM, Strain/Indicator: TA97, Metabolic Activation: RAT, LIVER, S-9, PHENOBARBITAL, Method: STANDARD PLATE inactive; negative | Test System: AMES SALMONELLA TYPHIMURIUM, Strain/Indicator: TA98, Metabolic Activation: NONE, Method: STANDARD PLATE inactive; negative | Test System: AMES SALMONELLA TYPHIMURIUM, Strain/Indicator: TA98, Metabolic Activation: RAT, LIVER, S-9, AROCLOR 1254, Method: STANDARD PLATE inactive; negative | Test System: AMES SALMONELLA TYPHIMURIUM, Strain/Indicator: TA98, Metabolic Activation: RAT, LIVER, S-9, PHENOBARBITAL, Method: STANDARD PLATE inactive; negative | Test System: AMES SALMONELLA TYPHIMURIUM, Strain/Indicator: TA100, Metabolic Activation: RAT, LIVER, S-9, AROCLOR 1254, Method: STANDARD PLATE inactive; negative | Test System: AMES SALMONELLA TYPHIMURIUM, Strain/Indicator: TA100, Metabolic Activation: RAT, LIVER, S-9, PHENOBARBITAL, Method: STANDARD PLATE inactive; negative | Test System: AMES SALMONELLA TYPHIMURIUM, Strain/Indicator: TA102, Metabolic Activation: NONE, Method: STANDARD PLATE inactive; negative | Test System: AMES SALMONELLA TYPHIMURIUM, Strain/Indicator: TA102, Metabolic Activation: RAT, LIVER, S-9, AROCLOR 1254, Method: STANDARD PLATE inactive; negative

CCCCCC[C@@H](O)C/C=C\CCCCCCCC(=O)O
inactive: Test System: AMES SALMONELLA TYPHIMURIUM, Strain/Indicator: TA98, Metabolic Activation: HAMSTER, LIVER, S-9, AROCLOR 1254, Method: PREINCUBATION inactive; negative | [1] inactive; negative | [2] inactive; negative | Test System: AMES SALMONELLA TYPHIMURIUM, Strain/Indicator: TA100, Metabolic Activation: HAMSTER, LIVER, S-9, AROCLOR 1254, Method: PREINCUBATION inactive; negative | [3] inactive; negative | [4] inactive; negative | Test System: AMES SALMONELLA TYPHIMURIUM, Strain/Indicator: TA1535, Metabolic Activation: HAMSTER, LIVER, S-9, AROCLOR 1254, Method: PREINCUBATION inactive; negative | Test System: AMES SALMONELLA TYPHIMURIUM, Strain/Indicator: TA1535, Metabolic Activation: NONE, Method: PREINCUBATION inactive; negative | Test System: AMES SALMONELLA TYPHIMURIUM, Strain/Indicator: TA1535, Metabolic Activation: RAT, LIVER, S-9, AROCLOR 1254, Method: PREINCUBATION inactive; negative | Test System: AMES SALMONELLA TYPHIMURIUM, Strain/Indicator: TA1537, Metabolic Activation: HAMSTER, LIVER, S-9, AROCLOR 1254, Method: PREINCUBATION inactive; negative | Test System: AMES SALMONELLA TYPHIMURIUM, Strain/Indicator: TA1537, Metabolic Activation: NONE, Method: PREINCUBATION inactive; negative | Test System: AMES SALMONELLA TYPHIMURIUM, Strain/Indicator: TA1537, Metabolic Activation: RAT, LIVER, S-9, AROCLOR 1254, Method: PREINCUBATION inactive; negative

C1CC2OC2CCC2OC12 (stereo not given)
inactive: Test System: AMES SALMONELLA TYPHIMURIUM, Strain/Indicator: TA100, Metabolic Activation: NONE, Method: STANDARD PLATE inactive; negative | Test System: AMES SALMONELLA TYPHIMURIUM, Strain/Indicator: TA1535, Metabolic Activation: NONE, Method: STANDARD PLATE inactive; negative
